According to patent publication US9994548B2, “Phenyl-substituted nicotinic ligands, and methods of use thereof” (Georgetown University, priority 2011, dated 2018):

target: T1, human α4β2 nAChRs (Homo sapiens, UniProt P17787+P43681); assay: 86Rb+ efflux assay in stably transfected cells; assay type: cell-based; conditions: not given
T1 construct: expressed in transfected cells
Procedure: (§1) The cell line expressing rat α3β4 nAChRs, KXα3β4R2, was established previously by stably transfecting HEK 293 cells with combinations of rat nAChR α3 and β4 subunit genes. The cell line expressing human α4β2 nAChRs, YXα4β2H1, were established recently (Tuan et al., 2012, manuscript in preparation). These cell lines were maintained in minimum essential medium (MEM) supplemented with 10% fetal bovine serum, 100 units/mL penicillin G, […] streptomycin and selective antibiotics at 37° C. with 5% CO2 in a humidified incubator. Tissue culture medium and antibiotics were obtained from Invitrogen Corporation (Carlsbad, Calif.), unless otherwise stated. Fetal bovine serum and horse serum were provided by Gemini Bio-Products (Woodland, Calif.).
(§2) Functional properties of compounds at nAChRs expressed in the transfected cells were measured using ^86Rb^+ efflux assays as described previously. In brief, cells were plated into 24-well plates coated with poly-D-lysine. The plated cells were grown at 37° C. for 18 to 24 hour to reach 85-95% confluence. The cells were then incubated in growth medium (0.5 mL/well) containing ^86Rb^+ (2 μCi/mL) for 4 hour at 37° C. The loading mixture was then aspirated, and the cells were washed four times with 1 mL buffer (15 mM HEPES, 140 mM NaCl, 2 mM KCl, 1 mM MgSO4, 1.8 mM CaCl2, 11 mM Glucose, pH 7.4). One mL of buffer with or without compounds to be tested was then added to each well. After incubation for 2 min, the assay buffer was collected for measurements of ^86Rb^+ released from the cells. Cells were then lysed by adding 1 mL of 100 mM NaOH to each well, and the lysate was collected for determination of the amount of ^86Rb^+ that was in the cells at the end of the efflux assay. Radioactivity of assay samples and lysates was measured by liquid scintillation counting. Total loading (cpm) was calculated as the sum of the assay sample and the lysate of each well. The amount of ^86Rb^+ efflux was expressed as a percentage of ^86Rb^+ loaded. […] For obtaining EC50 and Emax values, stimulation curves were constructed in which 8 different concentrations of a ligand were included in the assay. […] EC50, Emax and IC50(10′) values were determined by nonlinear least-squares regression analyses (GraphPad, San Diego, Calif.).
(§3) Functional properties of the new ligands were determined by ^86Rb^1 efflux assays in cells expressing α3β4 and α4β2 nAChR subtypes. Functional activity of each new ligand was measured in terms of its agonism, antagonism and desensitization ability.
(§4) Agonist activity of each of the ligands was tested at eight concentrations. […] The full concentration-effect curves generated potency (EC50) and efficacy (Emax) of each ligand.
(§5) Though the ^86Rb^+ efflux assays were the main methodology used to determine functional properties, whole-cell current measurements were also used to verify the key experiments.

SMILES	inhibition of nicotine activation of α4β2 receptors
CN1CCCC1c1cccnc1 (stereo not drawn) [nicotine, reference compound]	inhibited

same assay, conditions: 86Rb+ efflux, human α4β2

SMILES	agonist activity at α4β2 receptors
c1cnc2cc3c(cc2n1)[C@@H]1CNC[C@H]3C1 [varenicline, reference compound]	partial agonist activity

same assay, conditions: 10 min pre-treatment before 100 μM (−)-nicotine; listed as Saz-A; read-out: IC50(10′) α4β2 (desensitization potency)

SMILES	IC50 [µM]
OCCCCC#Cc1cncc(OC[C@@H]2CCN2)c1 [Sazetidine-A, reference compound]	0.012

same assay, conditions: 10 min pre-treatment before 100 μM (−)-nicotine; read-out: IC50(10′) α4β2 (desensitization potency)

SMILES	IC50 [µM]
OCCCCC#Cc1cncc(OC[C@@H]2CCN2)c1 [Sazetidine-A, reference compound]	0.0075
Fc1ccc(C#Cc2cncc(OC[C@@H]3CCN3)c2)cc1 [VMY-2-101, (S)-3-(azetidin-2-ylmethoxy)-5-((4-fluorophenyl)ethynyl)pyridine]	0.008
Fc1ccccc1C#Cc1cncc(OC[C@@H]2CCN2)c1 [VMY-2-105, (S)-3-(azetidin-2-ylmethoxy)-5-((2-fluorophenyl)ethynyl)pyridine]	0.02
Fc1cccc(C#Cc2cncc(OC[C@@H]3CCN3)c2)c1 [VMY-2-109, (S)-3-(azetidin-2-ylmethoxy)-5-((3-fluorophenyl)ethynyl)pyridine]	0.013
C(#Cc1cncc(OCC2CCC2)c1)c1ccccc1 [VMY-2-161, 3-(cyclobutylmethoxy)-5-(phenylethynyl)pyridine]	35
CCCNCCOc1cncc(C#Cc2ccccc2)c1 [VMY-2-177, N-(2-(5-(phenylethynyl)pyridin-3-yloxy)ethyl)propan-1-amine]	15

same assay, conditions: preincubated with the cells for 10 min

SMILES	inhibition of nicotine activation of α4β2 receptors
OCCCCC#Cc1cncc(OC[C@@H]2CCN2)c1 [Sazetidine-A, reference compound]	inhibited
c1cnc2cc3c(cc2n1)[C@@H]1CNC[C@H]3C1 [varenicline, reference compound]	inhibited

target: T2, rat α3β4 nAChRs (Rattus norvegicus, UniProt P04757+P12392); assay: 86Rb+ efflux assay in stably transfected cells; assay type: cell-based; conditions: 86Rb+ efflux, rat α3β4
T2 construct: expressed in transfected cells; host or cells: HEK 293 (KXα3β4R2)
Procedure: as §1, §2, §3, §4, §5

SMILES	agonist activity at α3β4 nAChRs
OCCCCC#Cc1cncc(OC[C@@H]2CCN2)c1 [Sazetidine-A, reference compound]	does not show agonist activity
c1cnc2cc3c(cc2n1)[C@@H]1CNC[C@H]3C1 [varenicline, reference compound]	near-full agonist activity

same assay, conditions: 10 min pre-treatment before 100 μM (−)-nicotine; read-out: IC50(10′) α3β4 (desensitization potency)

SMILES	IC50 [µM]
OCCCCC#Cc1cncc(OC[C@@H]2CCN2)c1 [Sazetidine-A, reference compound]	> 10
C(#Cc1cncc(OCC2CCC2)c1)c1ccccc1 [VMY-2-161, 3-(cyclobutylmethoxy)-5-(phenylethynyl)pyridine]	> 100
CCCNCCOc1cncc(C#Cc2ccccc2)c1 [VMY-2-177, N-(2-(5-(phenylethynyl)pyridin-3-yloxy)ethyl)propan-1-amine]	12

same assay, conditions: concentrations up to 10 μM

SMILES	effect on the function of rat α3β4 nAChRs
OCCCCC#Cc1cncc(OC[C@@H]2CCN2)c1 [Sazetidine-A, reference compound]	had no effect

tested on: not given; assay: not given; conditions: human, in vivo; cited from earlier work

SMILES	participants in clinical trials who reported nausea [%]	participants in clinical trials who reported vomiting [%]	percentage of subjects who remained smoke-free for 12 months following treatment [%]
c1cnc2cc3c(cc2n1)[C@@H]1CNC[C@H]3C1 [varenicline, reference compound]	~30	18	~22

tested on: nicotine self-administration; assay: not given; conditions: subcutaneous, previous studies; cited from earlier work

SMILES	lowest effective dose reducing nicotine self-administration [mg/kg]
OCCCCC#Cc1cncc(OC[C@@H]2CCN2)c1 [Sazetidine-A, reference compound]	3

target: T3, α4β2 nAChR (Rattus norvegicus, UniProt P09483+P12390); assay: [3H]-epibatidine radioligand competition binding assay; conditions: not given
T3 construct: expressed in transfected cells
Procedure: (§6) Stably transfected cell lines, tissue culture conditions, membrane preparation procedures and binding assays were described previously. Briefly, cultured cells at >80% confluence were removed from their flasks (80 cm^2) with a disposable cell scraper and placed in 10 mL of 50 mM Tris.HCl buffer (pH 7.4, 4° C.). The cell suspension was centrifuged at 10,000×g for 5 min and the pellet was collected. The cell pellet was then homogenized in 10 mL buffer with a polytron homogenizer and centrifuged at 36,000 g for 10 min at 4° C. The membrane pellet was resuspended in fresh buffer, and aliquots of the membrane preparation were used for binding assays. The concentration of [^3H]-epibatidine used was ˜500 pM for competition binding assays. […] Bound and free ligands were separated by vacuum filtration through Whatman GF/C filters treated with 0.5% polyethylenimine. The filter-retained radioactivity was measured by liquid scintillation counting. Specific binding was defined as the difference between total binding and nonspecific binding. Data from competition binding assays were analyzed using Prism 5 (GraphPad Software, San Diego, Calif.).
(§7) The in vitro binding affinities of the new ligands were measured for defined receptor subtypes (α2β2, α2β4, α3β2, α3β4, α4β2, α4β4, α6β2, α6β4, and α7) expressed in stably transfected cell lines. [^3H]Epibatidine ([^3H]EB) binds to the agonist recognition site of all of the defined receptor subtypes with high affinities. Rat forebrain homogenates were included to allow comparison between the heterologous and native α4β2 and α7 nAChRs. See FIG. 18 for binding affinity values (Ki) of the ligands at the three major nAChR subtypes (α3β4, […], and α7).
(§8) The binding affinities of all compounds synthesized for the receptor subtypes were examined in binding competition studies against [^3H]-epibatidine.

SMILES	Ki [nM]
Fc1ccc(C#Cc2cncc(OC[C@@H]3CCN3)c2)cc1 [VMY-2-101, (S)-3-(azetidin-2-ylmethoxy)-5-((4-fluorophenyl)ethynyl)pyridine]	0.083
Fc1ccccc1C#Cc1cncc(OC[C@@H]2CCN2)c1 [VMY-2-105, (S)-3-(azetidin-2-ylmethoxy)-5-((2-fluorophenyl)ethynyl)pyridine]	0.072
Fc1cccc(C#Cc2cncc(OC[C@@H]3CCN3)c2)c1 [VMY-2-109, (S)-3-(azetidin-2-ylmethoxy)-5-((3-fluorophenyl)ethynyl)pyridine]	0.032

same assay, conditions: competition against [3H]-epibatidine, stably transfected cell membranes; read-out: Ki α4β2

SMILES	Ki [nM]
OCCCCC#Cc1cncc(OC[C@@H]2CCN2)c1 [Sazetidine-A, reference compound]	0.062
C(#Cc1cncc(OCC2CCC2)c1)c1ccccc1 [VMY-2-161, 3-(cyclobutylmethoxy)-5-(phenylethynyl)pyridine]	160000
CCCNCCOc1cncc(C#Cc2ccccc2)c1 [VMY-2-177, N-(2-(5-(phenylethynyl)pyridin-3-yloxy)ethyl)propan-1-amine]	1100

target: T4, α3β4 nAChR (Rattus norvegicus, UniProt P04757+P12392); assay: as above; conditions: competition against [3H]-epibatidine, stably transfected cell membranes; read-out: Ki α3β4
T4 construct: expressed in transfected cells; host or cells: HEK 293 (KXα3β4R2)
Procedure: as §6, §7, §8

SMILES	Ki [µM]
OCCCCC#Cc1cncc(OC[C@@H]2CCN2)c1 [Sazetidine-A, reference compound]	1.9
Fc1ccc(C#Cc2cncc(OC[C@@H]3CCN3)c2)cc1 [VMY-2-101, (S)-3-(azetidin-2-ylmethoxy)-5-((4-fluorophenyl)ethynyl)pyridine]	0.65
Fc1ccccc1C#Cc1cncc(OC[C@@H]2CCN2)c1 [VMY-2-105, (S)-3-(azetidin-2-ylmethoxy)-5-((2-fluorophenyl)ethynyl)pyridine]	0.58
Fc1cccc(C#Cc2cncc(OC[C@@H]3CCN3)c2)c1 [VMY-2-109, (S)-3-(azetidin-2-ylmethoxy)-5-((3-fluorophenyl)ethynyl)pyridine]	0.52
C(#Cc1cncc(OCC2CCC2)c1)c1ccccc1 [VMY-2-161, 3-(cyclobutylmethoxy)-5-(phenylethynyl)pyridine]	1300
CCCNCCOc1cncc(C#Cc2ccccc2)c1 [VMY-2-177, N-(2-(5-(phenylethynyl)pyridin-3-yloxy)ethyl)propan-1-amine]	850

target: T5, α7 nAChR (Rattus norvegicus, UniProt Q05941); assay: as above; conditions: competition against [3H]-epibatidine
T5 construct: expressed in transfected cells
Procedure: as §6, §7, §8

SMILES	Ki [µM]
OCCCCC#Cc1cncc(OC[C@@H]2CCN2)c1 [Sazetidine-A, reference compound]	1.6
Fc1ccc(C#Cc2cncc(OC[C@@H]3CCN3)c2)cc1 [VMY-2-101, (S)-3-(azetidin-2-ylmethoxy)-5-((4-fluorophenyl)ethynyl)pyridine]	2
Fc1ccccc1C#Cc1cncc(OC[C@@H]2CCN2)c1 [VMY-2-105, (S)-3-(azetidin-2-ylmethoxy)-5-((2-fluorophenyl)ethynyl)pyridine]	1.1
Fc1cccc(C#Cc2cncc(OC[C@@H]3CCN3)c2)c1 [VMY-2-109, (S)-3-(azetidin-2-ylmethoxy)-5-((3-fluorophenyl)ethynyl)pyridine]	0.72
C(#Cc1cncc(OCC2CCC2)c1)c1ccccc1 [VMY-2-161, 3-(cyclobutylmethoxy)-5-(phenylethynyl)pyridine]	410
CCCNCCOc1cncc(C#Cc2ccccc2)c1 [VMY-2-177, N-(2-(5-(phenylethynyl)pyridin-3-yloxy)ethyl)propan-1-amine]	48
